The results in this text go back to US20230220443A1, “CHARACTERIZATION OF S-ADENOSYL-L-METHIONINE-CONSUMING ENZYMES WITH 1-STEP EZ-MTASE: A UNIVERSAL COUPLED-ASSAY” (ALBERT EINSTEIN COLLEGE OF MEDICINE, priority 2017, published 2023).

One experiment deals with T1, CePRMT5 (Caenorhabditis elegans, UniProt P46580).
T1 construct: made in house
T1 sequence (P46580 1-734): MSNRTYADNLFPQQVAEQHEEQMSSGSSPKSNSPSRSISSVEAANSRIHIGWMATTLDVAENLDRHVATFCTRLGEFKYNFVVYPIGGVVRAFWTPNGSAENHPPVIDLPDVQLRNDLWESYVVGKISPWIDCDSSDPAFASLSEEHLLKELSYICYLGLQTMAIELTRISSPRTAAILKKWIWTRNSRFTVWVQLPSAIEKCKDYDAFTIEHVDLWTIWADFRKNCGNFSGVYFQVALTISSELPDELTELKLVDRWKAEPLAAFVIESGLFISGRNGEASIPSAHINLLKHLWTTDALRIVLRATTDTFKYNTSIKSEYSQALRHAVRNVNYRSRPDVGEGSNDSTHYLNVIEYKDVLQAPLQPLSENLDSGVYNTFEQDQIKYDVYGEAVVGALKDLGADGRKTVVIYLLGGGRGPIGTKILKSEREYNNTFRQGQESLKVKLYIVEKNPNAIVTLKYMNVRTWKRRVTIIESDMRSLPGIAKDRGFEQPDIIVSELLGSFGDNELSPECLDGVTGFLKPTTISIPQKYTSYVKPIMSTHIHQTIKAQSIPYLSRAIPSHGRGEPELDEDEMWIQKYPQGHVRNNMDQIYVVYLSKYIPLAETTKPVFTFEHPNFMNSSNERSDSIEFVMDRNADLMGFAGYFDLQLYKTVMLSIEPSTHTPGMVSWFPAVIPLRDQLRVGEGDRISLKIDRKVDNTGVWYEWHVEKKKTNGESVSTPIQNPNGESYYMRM
The experiment is described as follows: 1-Step EZ-MTase UV-based coupled assay, CePRMT5 kinetics. Type of experiment: biochemical. Conditions: for Km / kcat: pH=7.60, co-substrate saturating, 4 μM TM0936, 263 nm (282 nm for 8-aza-SAM); for catalytic efficiency: saturating H4 peptide. Here is the method:
The 250-μL reaction mixtures from a same row contained 50 mM phosphate buffer pH=7.60, 1 mM βME, 10% glycerol, 4 μM coupling deaminase TM0936, 300 nM CePRMT5 and various peptide concentrations (5-180 μM; in the first well, peptide acceptor was omitted to account for background signal—natural decomposition of SAM). The methyltransfer reactions started upon addition of SAM (25 μM saturating final concentration) and absorbance was recorded.
The 250-μL reaction mixtures from a same row contained 50 mM phosphate buffer pH=7.60, 1 mM βME, 10% glycerol, 4 μM coupling deaminase TM0936, 300 nM CePRMT5 and various SAM concentrations (2.35-47.0 μM). […] Initial rates were first corrected for background signal, then plotted against SAM concentrations and fitted to the Morrison kinetic model to yield corresponding kinetic parameters.
(§1) Kinetic behavior for 8-aza-SAM against MTases (acceptor sat.)—Briefly, kinetic parameters were determined at 20° C. in a UV-Star 96-well flat bottom plate (Greiner Bio-One, #655801) by continuous monitoring of absorbance at 282 nm using a SpectraMax M5 instrument (Molecular Devices). As for SAM experiments, the measurements consisted of two experimental subsets: MTase reactions (both 8-aza-SAM and acceptor added) and MTase blanks (8-aza-SAM was added without acceptor to account for natural 8-aza-SAM decomposition). The 250-μL (60-μL) reaction mixtures from a same row contained 50 mM phosphate buffer pH=7.60 (7.80), 1 mM βME, 10% glycerol (5% glycerol, 100 μM MgCl2), 4 μM coupling deaminase TM0936, either 1.5 μM CePRMT5 or 402 nM TbPRMT7 (or 610 nM GsSDMT) and various 8-aza-SAM concentrations. […] Initial rates were first corrected for background signal, then plotted against 8-aza-SAM concentrations and fitted to the Michaelis-Menten equation to yield corresponding kinetic parameters.

The next experiment concerns the target T2, GsSDMT (Galdieria sulphuraria, UniProt M2XPA0).
T2 sequence (M2XPA0 2-297): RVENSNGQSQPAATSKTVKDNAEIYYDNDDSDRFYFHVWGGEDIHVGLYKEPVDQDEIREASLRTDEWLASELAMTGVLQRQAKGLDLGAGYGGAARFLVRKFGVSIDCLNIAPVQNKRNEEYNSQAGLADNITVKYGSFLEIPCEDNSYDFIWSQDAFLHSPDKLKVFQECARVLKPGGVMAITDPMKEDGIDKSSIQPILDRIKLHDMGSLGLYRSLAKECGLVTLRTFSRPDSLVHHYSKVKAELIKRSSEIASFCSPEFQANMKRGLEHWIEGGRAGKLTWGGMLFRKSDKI
The experiment is described as follows: 1-Step EZ-MTase UV-based coupled assay, GsSDMT kinetics. Type of experiment: biochemical. Conditions: for Km / kcat: pH=7.80, co-substrate saturating. Here is the method: Kinetic behavior for sarcosine against GsSDMT (SAM sat.)—Experiments were conducted following matching CePRMT5 protocol above. Briefly, the 100-μL mixtures from a same row contained 100 mM phosphate buffer pH=7.80, 1 mM βME, 5% glycerol, 100 μM MgCl2, 4 μM coupling deaminase TM0936, 976 nM GsSDMT and various sarcosine concentrations (0.5-12.5 mM; in the first well, sarcosine was omitted to account for background signal—natural decomposition of SAM). Reactions started upon addition of SAM (750 μM saturating final concentration), 60-μL volumes were transferred onto UV plate and absorbance was recorded. Initial rates were first corrected for background signal, and then plotted against sarcosine concentrations. Fit to the Michaelis-Menten equation provided corresponding kinetic parameters.
Kinetic behavior for SAM against GsSDMT (sarcosine sat.)—Experiments were conducted following matching CePRMT5 protocol above. Briefly, the measurements consisted of two experimental subsets: MTase reactions (both SAM and sarcosine added) and MTase blanks (SAM was added without sarcosine to account for natural SAM decomposition). The 100-μL reaction mixtures from a same row contained 100 mM phosphate buffer pH=7.80, 1 mM βME, 5% glycerol, 100 μM MgCl2, 4 μM coupling deaminase TM0936, 195 nM GsSDMT and various SAM concentrations (49.9-750.2 μM). Reactions started upon addition of either sarcosine (10 mM saturating final concentration; MTase reactions) or water (MTase blanks), 60-μL volumes were transferred onto UV plate and absorbance was recorded at 263 nm. Initial rates were first corrected for background signal, and then plotted against SAM concentrations. Fit to the Michaelis-Menten equation provided corresponding kinetic parameters.
as §1

Consider `C[S+](CC[C@H](N)C(=O)O)C[C@H]1O[C@@H](n2cnc3c(N)ncnc32)[C@H](O)[C@@H]1O` (stereo partly drawn) [SAM, S-adenosyl-L-methionine], for which, on CePRMT5, the Km is 6.8 ± 0.3 µM, the kcat turned out to be 0.00886 ± 0.00014 s⁻¹ and the catalytic efficiency was 1300 M⁻¹ s⁻¹. For the same compound, at GsSDMT, the Km is 95 ± 18 µM and the kcat came out at 0.7 ± 0.033 s⁻¹.
In the case of `C[S+](CC[C@H](N)C(=O)O)C[C@H]1O[C@@H](n2nnc3c(N)ncnc32)[C@H](O)[C@@H]1O` (stereo partly drawn) [8-aza-SAM, S-8-aza-adenosyl-L-methionine], the “substrate inhibition constant (Ks / Kf)” value at CePRMT5 (282 nm, pH=7.60, H4(1-20) 104 μM) was 67 ± 42 µM. In addition, on CePRMT5, the Km is 35 ± 19 µM, the kcat was 0.00417 ± 0.0017 s⁻¹ and the catalytic efficiency worked out at 120 M⁻¹ s⁻¹. In addition, on GsSDMT, the “substrate inhibition (inhibitory behavior of the analog)” value is listed as “not observed”, the Km is 443 ± 33 µM and the kcat is 1.35 ± 0.05 s⁻¹.
